Reference: publication PMC8629796, “Inhibition of the hERG potassium channel by phenanthrene: a polycyclic aromatic hydrocarbon pollutant” (Cellular and Molecular Life Sciences: CMLS, 2021)

Columns and labels:
[1] = target: T1, hERG (hERG1a, Kv11.1) potassium channel (Homo sapiens, UniProt Q12809, F656V)
T1 construct: gene KCNH2

[2] = target: T2, hERG (hERG1a, Kv11.1) potassium channel (Homo sapiens, UniProt Q12809); assay: whole-cell patch clamp, tail current inhibition; format: cell-based
T2 construct: gene KCNH2; WT hERG1a stably expressed in HEK293 cells
T2 sequence (Q12809 whole entry): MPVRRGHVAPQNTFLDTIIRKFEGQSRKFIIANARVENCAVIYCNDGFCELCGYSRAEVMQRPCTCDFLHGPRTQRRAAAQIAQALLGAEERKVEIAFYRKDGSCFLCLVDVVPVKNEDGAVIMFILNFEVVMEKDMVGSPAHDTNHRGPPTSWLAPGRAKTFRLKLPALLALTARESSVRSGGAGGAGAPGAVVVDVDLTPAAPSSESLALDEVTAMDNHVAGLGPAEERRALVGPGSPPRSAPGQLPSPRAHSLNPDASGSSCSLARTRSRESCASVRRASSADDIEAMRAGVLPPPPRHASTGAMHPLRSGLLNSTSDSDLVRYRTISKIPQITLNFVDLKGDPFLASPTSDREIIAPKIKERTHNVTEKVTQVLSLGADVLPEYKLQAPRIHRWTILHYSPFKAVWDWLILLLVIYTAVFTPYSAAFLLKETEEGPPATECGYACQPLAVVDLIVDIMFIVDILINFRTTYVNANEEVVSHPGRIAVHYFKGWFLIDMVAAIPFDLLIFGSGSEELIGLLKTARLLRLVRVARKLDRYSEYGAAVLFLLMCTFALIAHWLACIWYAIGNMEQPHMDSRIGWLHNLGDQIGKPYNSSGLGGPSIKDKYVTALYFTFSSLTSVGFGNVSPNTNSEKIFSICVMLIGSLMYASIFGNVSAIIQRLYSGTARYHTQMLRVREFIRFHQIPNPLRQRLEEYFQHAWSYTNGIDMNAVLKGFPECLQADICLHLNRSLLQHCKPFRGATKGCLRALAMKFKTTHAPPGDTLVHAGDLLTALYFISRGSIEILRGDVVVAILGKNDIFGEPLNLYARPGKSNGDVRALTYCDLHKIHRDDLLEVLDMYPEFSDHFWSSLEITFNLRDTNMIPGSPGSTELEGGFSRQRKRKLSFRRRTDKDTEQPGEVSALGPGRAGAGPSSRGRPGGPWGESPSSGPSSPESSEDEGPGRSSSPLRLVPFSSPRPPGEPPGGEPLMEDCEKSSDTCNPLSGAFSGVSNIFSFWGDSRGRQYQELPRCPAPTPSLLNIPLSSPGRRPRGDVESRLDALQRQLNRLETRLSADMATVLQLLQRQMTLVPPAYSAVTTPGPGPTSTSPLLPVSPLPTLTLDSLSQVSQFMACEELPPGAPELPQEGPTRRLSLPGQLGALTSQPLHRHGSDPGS

zebrafish ERG (zERG) = target: T3, zebrafish ERG (zERG) (Danio rerio, UniProt A0A8M1PIE0); assay: whole-cell patch clamp, current inhibition; format: cell-based
T3 construct: gene kcnh6a
T3 sequence (A0A8M1PIE0 1-1186): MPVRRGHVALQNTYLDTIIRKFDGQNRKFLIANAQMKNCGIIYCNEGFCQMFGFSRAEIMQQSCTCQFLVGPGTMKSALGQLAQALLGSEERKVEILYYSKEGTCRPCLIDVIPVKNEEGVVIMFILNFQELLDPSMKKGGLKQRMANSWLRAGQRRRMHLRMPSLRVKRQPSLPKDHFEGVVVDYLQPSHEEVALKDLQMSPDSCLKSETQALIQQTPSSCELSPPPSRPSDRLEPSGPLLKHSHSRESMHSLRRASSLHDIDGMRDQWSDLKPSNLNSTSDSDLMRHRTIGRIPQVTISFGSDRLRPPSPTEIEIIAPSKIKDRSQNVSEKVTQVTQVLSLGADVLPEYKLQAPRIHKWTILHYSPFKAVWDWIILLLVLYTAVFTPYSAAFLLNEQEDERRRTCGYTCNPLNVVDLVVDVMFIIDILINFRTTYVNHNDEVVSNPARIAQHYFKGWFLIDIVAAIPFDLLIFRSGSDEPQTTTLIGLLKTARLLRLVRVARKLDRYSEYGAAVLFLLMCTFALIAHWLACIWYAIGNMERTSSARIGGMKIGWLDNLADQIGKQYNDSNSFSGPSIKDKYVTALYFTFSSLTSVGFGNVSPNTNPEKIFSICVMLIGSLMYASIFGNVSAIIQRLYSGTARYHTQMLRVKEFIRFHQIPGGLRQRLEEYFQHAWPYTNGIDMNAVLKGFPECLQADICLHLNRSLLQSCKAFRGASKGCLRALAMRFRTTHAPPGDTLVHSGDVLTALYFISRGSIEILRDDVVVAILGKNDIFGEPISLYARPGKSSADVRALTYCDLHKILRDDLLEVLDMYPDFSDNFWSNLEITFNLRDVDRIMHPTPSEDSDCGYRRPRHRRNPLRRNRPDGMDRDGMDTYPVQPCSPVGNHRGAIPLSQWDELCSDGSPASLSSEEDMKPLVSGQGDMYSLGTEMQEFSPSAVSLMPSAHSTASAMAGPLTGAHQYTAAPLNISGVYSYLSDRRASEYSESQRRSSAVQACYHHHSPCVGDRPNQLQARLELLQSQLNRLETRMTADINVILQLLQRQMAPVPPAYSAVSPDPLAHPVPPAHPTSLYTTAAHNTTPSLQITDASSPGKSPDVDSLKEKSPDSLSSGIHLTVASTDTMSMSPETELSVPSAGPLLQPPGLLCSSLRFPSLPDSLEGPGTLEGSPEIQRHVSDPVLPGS

[3] = target: T4, hERG (hERG1a, Kv11.1) potassium channel (Homo sapiens, UniProt Q12809, F656T); assay: whole-cell patch clamp, tail current block by […]; format: cell-based
T4 construct: gene KCNH2; hERG1a F656T transiently expressed in HEK293 cells

[4] = target: T5, hERG (hERG1a, Kv11.1) potassium channel (Homo sapiens, UniProt Q12809, Y652A); assay: whole-cell patch clamp, tail current inhibition; format: cell-based
T5 construct: gene KCNH2; hERG1a Y652A transiently expressed in HEK293 cells
T5 sequence (Q12809 whole entry Y652A): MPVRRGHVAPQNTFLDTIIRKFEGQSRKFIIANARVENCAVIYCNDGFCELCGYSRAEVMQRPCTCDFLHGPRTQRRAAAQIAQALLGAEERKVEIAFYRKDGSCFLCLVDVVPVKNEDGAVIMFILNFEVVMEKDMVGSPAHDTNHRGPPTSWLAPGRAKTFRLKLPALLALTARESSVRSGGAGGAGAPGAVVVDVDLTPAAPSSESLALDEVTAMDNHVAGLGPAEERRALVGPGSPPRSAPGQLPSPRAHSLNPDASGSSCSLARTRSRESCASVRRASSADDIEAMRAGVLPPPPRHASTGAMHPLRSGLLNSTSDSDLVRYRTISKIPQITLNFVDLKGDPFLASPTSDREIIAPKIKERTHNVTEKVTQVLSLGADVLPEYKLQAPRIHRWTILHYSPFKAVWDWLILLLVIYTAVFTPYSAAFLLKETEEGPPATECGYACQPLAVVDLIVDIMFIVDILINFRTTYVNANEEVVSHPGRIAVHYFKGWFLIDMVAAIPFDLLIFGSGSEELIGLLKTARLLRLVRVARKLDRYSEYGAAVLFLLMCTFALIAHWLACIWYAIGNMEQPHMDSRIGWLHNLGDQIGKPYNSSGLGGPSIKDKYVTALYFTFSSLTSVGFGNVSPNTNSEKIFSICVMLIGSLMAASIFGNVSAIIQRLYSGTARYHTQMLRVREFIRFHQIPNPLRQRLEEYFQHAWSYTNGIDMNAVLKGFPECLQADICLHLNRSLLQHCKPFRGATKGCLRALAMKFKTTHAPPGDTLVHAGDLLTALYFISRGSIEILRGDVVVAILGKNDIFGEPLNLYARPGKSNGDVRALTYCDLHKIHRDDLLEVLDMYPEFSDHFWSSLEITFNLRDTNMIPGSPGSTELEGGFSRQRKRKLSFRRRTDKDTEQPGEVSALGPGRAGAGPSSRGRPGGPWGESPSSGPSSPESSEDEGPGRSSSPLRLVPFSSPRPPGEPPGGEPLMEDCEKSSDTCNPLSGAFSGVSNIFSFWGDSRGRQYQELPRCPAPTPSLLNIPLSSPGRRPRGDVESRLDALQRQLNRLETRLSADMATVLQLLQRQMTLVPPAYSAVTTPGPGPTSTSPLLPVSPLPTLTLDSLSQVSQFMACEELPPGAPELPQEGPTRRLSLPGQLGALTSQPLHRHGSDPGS

T1 sequence (Q12809 whole entry F656V): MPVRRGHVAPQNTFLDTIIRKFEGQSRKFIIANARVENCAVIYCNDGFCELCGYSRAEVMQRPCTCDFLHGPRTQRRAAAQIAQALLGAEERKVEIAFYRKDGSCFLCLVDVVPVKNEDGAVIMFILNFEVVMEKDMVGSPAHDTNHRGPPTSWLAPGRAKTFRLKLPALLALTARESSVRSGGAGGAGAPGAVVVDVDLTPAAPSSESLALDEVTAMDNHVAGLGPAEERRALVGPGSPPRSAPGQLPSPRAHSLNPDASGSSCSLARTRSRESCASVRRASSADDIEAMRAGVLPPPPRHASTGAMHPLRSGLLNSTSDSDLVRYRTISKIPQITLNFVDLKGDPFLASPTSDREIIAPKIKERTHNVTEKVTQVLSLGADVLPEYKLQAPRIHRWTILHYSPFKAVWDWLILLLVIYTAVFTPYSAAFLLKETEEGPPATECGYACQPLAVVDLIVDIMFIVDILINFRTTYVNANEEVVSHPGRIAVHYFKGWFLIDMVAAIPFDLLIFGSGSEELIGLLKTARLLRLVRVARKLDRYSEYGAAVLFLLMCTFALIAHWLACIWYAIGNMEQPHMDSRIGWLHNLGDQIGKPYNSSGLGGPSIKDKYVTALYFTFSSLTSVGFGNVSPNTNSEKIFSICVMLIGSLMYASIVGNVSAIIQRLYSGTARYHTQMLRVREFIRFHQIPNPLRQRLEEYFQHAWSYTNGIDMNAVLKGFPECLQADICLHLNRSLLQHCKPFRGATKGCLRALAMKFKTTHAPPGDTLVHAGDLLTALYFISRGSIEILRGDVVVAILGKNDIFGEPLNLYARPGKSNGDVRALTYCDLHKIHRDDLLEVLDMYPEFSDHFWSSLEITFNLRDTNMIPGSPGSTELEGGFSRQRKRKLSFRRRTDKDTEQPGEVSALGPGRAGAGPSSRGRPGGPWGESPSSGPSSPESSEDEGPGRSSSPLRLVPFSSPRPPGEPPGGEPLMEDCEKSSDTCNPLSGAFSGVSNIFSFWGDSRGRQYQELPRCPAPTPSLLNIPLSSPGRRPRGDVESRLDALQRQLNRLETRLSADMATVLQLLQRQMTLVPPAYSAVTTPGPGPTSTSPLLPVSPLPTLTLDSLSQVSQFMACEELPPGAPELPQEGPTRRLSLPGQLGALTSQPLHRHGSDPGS

IC50 (zebrafish ERG (zERG)): 8.77 ± 0.93 µM
Compound: c1ccc2c(c1)ccc1ccccc12 [phenanthrene]
whole-cell patch clamp, tail current block by 30 μM [1]: also did not impair the inhibitory effect of phenanthrene, showing a trend towards increased block
IC50 [2]: 17.6 ± 1.7 µM
whole-cell patch clamp, tail current block by 30 μM [3]: this effect was not statistically significantly different from block of WT IhERG
IC50 [4]: 0.46 ± 0.01 µM
